≈ marks a conversion by molar mass, not a printed value. Where two headings read alike, the source gives them in different places.
Key:
[1] = test system: rat plasma; settings: broth microdilution, various concentrations, cited from earlier work
[2] = target: Albumin (Homo sapiens, UniProt P02768); settings: cantilever nanosensor, 0.2 μg/ml, McKendry, unpublished; cited from earlier work
[3] = test system: mouse serum; settings: broth microdilution, various concentrations, Craig, unpublished; cited from earlier work
[4] = Serum protein binding from time-kill AUIC shift, serum vs serum ultrafiltrate (mouse); assay type: in vitro ADME; settings: pooled mouse serum compared with serum ultrafiltrate, read-out: Protein binding from area under the bacterial kill curves (converted)
Source text: (§1) Avid binding of oritavancin (ORI) to filtration and dialysis membranes renders most protein binding methodologies unsuitable. To control for any impact of serum components on bacterial growth and antibiotic activity, MIC shifts (from arithmetic drug dilutions) and area under the inhibitory curve (AUIC) shifts (from time-kill assays) were quantified in the presence of serum (SER) compared to SER ultrafiltrate (ULTRA; free of albumin) to estimate ORI binding to serum. In this manner, the extent of reduction in oritavancin activity in serum was related to its degree of serum protein binding. The method was benchmarked using daptomycin and ceftriaxone (Lee et al., Antimicrob Agents Chemother. 35:2505-2508 (1991); Schmidt et al., Antimicrob Agents Chemother. 52:3994-4000 (2008); Yuk et al., Clin Pharmacokinet. 17:223-235 (1989); McKay et al., Evaluation of oritavancin activity in vitro in the presence of human and mouse serum, abstr P1854. Abstr. 19th European Congress of Clinical Microbiology and Infectious Diseases. European Society of Clinical Microbiology and Infectious Diseases, Basel, Switzerland, May 16, 2009).
(§2) Pooled sera from humans, mice and rats were obtained from Equitech-Bio (Kerrville, Tex.); pooled serum from beagle dogs was from Bioreclamation (Liverpool, N.Y.). ULTRA was prepared using Centricon Plus-50 ultrafilters (Millipore, Billerica, Mass.), whose molecular weight cutoff (50 kDa) excludes albumin. ORI stock solutions were prepared following CLSI M100-818 (Clinical and Laboratory Standards Institute. 2008. CLSI document M100-S18). Staphylococcus aureus ATCC 29213 was used as the test isolate at a final inoculum of ˜5×10^5 CFU/mL in both MIC and AUIC studies.
(§3) AUIC studies: Time-kill studies were performed using S. aureus ATCC 29213 at a final inoculum of 1×10^6 CFU/mL in 95% serum:5% CAMHB and in 95% serum ultrafiltrate:5% CAMHB. […] The AUIC was calculated using GraphPad Prism software. Percent binding in serum was calculated as follows: % Bound=(1−[AUICultrafiltrate/AUICserum]×100%

[5] = test system: S. aureus ATCC 29213; experiment: Broth microdilution MIC with arithmetic drug dilutions; assay type: cell-based, Staphylococcus aureus; settings: for MIC: Staphylococcus aureus
Experimental: as §2
(§4) Arithmetic MICs: Broth microdilution MIC assays with Staphylococcus aureus ATCC 29213 were based on CLSI guidelines (Clinical and Laboratory Standards Institute, 2009, CLSI document M7-A7). Growth media were 95% serum:5% CAMHB and 95% serum ultrafiltrate:5% CAMHB. Arithmetic dilutions of oritavancin and comparators were used to increase precision of minimum inhibitory concentration (MIC) values relative to doubling dilutions. Percent binding in serum was calculated as follows: % Bound=(1−[mean MICultrafiltrate/mean MICserum]×100%

[6] = Serum protein binding from MIC shift, summary across species; assay type: in vitro ADME, human, mouse, rat, dog; settings: beagle (dog); human, mouse, rat, dog serum; MIC shift; read-out: Mean serum protein binding, range for the four species tested
Source text: as §1, §2
as §4, with “Arithmetic dilutions of oritavancin and comparators were used to increase precision of minimum inhibitory concentration (MIC) values relative to doubling dilutions.” left out

[7] = test system: serum protein; experiment: as above; assay type: in vitro ADME, human, mouse, rat, dog; settings: cross-species comparative study and concordant data
Source text: as §1, §2
as §4, with “Arithmetic dilutions of oritavancin and comparators were used to increase precision of minimum inhibitory concentration (MIC) values relative to doubling dilutions.” left out

[8] = Serum protein binding estimated from MIC shift, serum vs serum ultrafiltrate (human); assay type: in vitro ADME; settings: from mean MICs, broth microdilution, this study, read-out: % Bound (protein binding estimate) (converted)
Source text: as §1, §2
as §4, with “Arithmetic dilutions of oritavancin and comparators were used to increase precision of minimum inhibitory concentration (MIC) values relative to doubling dilutions.” left out

[9] = Serum protein binding estimated from MIC shift, serum vs serum ultrafiltrate (dog); assay type: in vitro ADME; settings: beagle dog serum; from mean MICs, broth microdilution; this study; read-out: % Bound (protein binding estimate) (converted)
Source text: as §1, §2
as §4, with “Arithmetic dilutions of oritavancin and comparators were used to increase precision of minimum inhibitory concentration (MIC) values relative to doubling dilutions.” left out

[10] = test system: human serum; settings: broth microdilution, various concentrations, Craig, unpublished; cited from earlier work
[11] = test system: human plasma; settings: broth microdilution, various concentrations, Zhanel et al. 1998; cited from earlier work
[12] = test system: human plasma; settings: DCC adsorption, 1-91 μg/ml, Rowe and Brown 2001; cited from earlier work
[13] = Serum protein binding estimated from MIC shift, serum vs serum ultrafiltrate (mouse); assay type: in vitro ADME; settings: mouse serum; from mean MICs, broth microdilution; this study; read-out: % Bound (protein binding estimate) (converted)
Source text: as §1, §2
as §4, with “Arithmetic dilutions of oritavancin and comparators were used to increase precision of minimum inhibitory concentration (MIC) values relative to doubling dilutions.” left out

[14] = Protein binding estimates from time kill-based assays, summary; assay type: in vitro ADME; settings: human, mouse, pooled serum compared with serum ultrafiltrate; this study; summary value
Source text: Avid binding of oritavancin (ORI) to filtration and dialysis membranes renders most protein binding methodologies unsuitable. To control for any impact of serum components on bacterial growth and antibiotic activity, MIC shifts (from arithmetic drug dilutions) and area under the inhibitory curve (AUIC) shifts (from time-kill assays) were quantified in the presence of serum (SER) compared to SER ultrafiltrate (ULTRA; free of albumin) to estimate ORI binding to serum. In this manner, the extent of reduction in oritavancin activity in serum was related to its degree of serum protein binding. […]
as §3

[15] = test system: exponentially-growing S. aureus (MSSA, MRSA, VRSA); settings: within 15 minutes to 2 hours; against MSSA, MRSA, and VRSA; McKay et al. 2009; cited from earlier work
[16] = Serum protein binding from time-kill AUIC shift, serum vs serum ultrafiltrate (human); assay type: in vitro ADME; settings: pooled human serum compared with serum ultrafiltrate, read-out: Protein binding from area under the bacterial kill curves (converted)
Source text: as §1, §2, §3

[17] = Serum protein binding estimated from MIC shift, serum vs serum ultrafiltrate (rat); assay type: in vitro ADME; settings: from mean MICs, broth microdilution, this study, read-out: % Bound (protein binding estimate) (converted)
Source text: as §1, §2
as §4, with “Arithmetic dilutions of oritavancin and comparators were used to increase precision of minimum inhibitory concentration (MIC) values relative to doubling dilutions.” left out

Chain of Albumin (P02768 25-609): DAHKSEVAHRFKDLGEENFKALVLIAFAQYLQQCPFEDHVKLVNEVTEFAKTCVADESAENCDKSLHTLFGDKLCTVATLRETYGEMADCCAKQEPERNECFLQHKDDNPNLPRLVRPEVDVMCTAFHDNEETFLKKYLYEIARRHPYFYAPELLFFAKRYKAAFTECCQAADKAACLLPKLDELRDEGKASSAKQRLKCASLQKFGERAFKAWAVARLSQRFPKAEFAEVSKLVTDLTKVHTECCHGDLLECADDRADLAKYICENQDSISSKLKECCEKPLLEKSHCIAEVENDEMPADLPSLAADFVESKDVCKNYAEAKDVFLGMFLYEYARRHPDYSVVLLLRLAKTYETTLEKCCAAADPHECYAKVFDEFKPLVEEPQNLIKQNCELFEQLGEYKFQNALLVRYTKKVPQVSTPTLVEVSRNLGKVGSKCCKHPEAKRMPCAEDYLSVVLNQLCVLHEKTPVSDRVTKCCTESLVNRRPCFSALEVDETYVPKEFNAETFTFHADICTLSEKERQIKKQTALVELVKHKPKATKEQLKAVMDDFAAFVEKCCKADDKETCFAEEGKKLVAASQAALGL

CN[C@H](CC(C)C)C(=O)N[C@H]1C(=O)N[C@@H](CC(N)=O)C(=O)N[C@H]2C(=O)N[C@H]3C(=O)N[C@H](C(=O)N[C@H](C(=O)O)c4cc(O)cc(O)c4-c4cc3ccc4O)[C@H](O[C@H]3C[C@](C)(N)[C@@H](O)[C@H](C)O3)c3ccc(c(Cl)c3)Oc3cc2cc(c3O[C@@H]2O[C@H](CO)[C@@H](O)[C@H](O)[C@H]2O[C@H]2C[C@](C)(NCc3ccc(-c4ccc(Cl)cc4)cc3)[C@@H](O)[C@H](C)O2)Oc2ccc(cc2Cl)[C@H]1O [Oritavancin, N-(4-(4-chlorophenyl)benzyl)A82846B]
Protein Binding ([1]; Zhanel et al. 1998, listed as oritavancin): greater than 80% | Protein Binding ([1]; Zhanel et al. 1998): >80% | Protein Binding [2]: 79 ± 0.2% | Protein Binding [3]: 85.2% | fraction unbound at 0.5 μg/ml ([4]; 0.5 μg/ml oritavancin): 0.335 | fraction unbound at 1 μg/ml ([4]; 1 μg/ml oritavancin): 0.317 | fraction unbound at 2 μg/ml ([4]; 2 μg/ml oritavancin): 0.312 | MIC ([5]; ATCC29213, read-out: MIC, CAMHB, mean, cation-adjusted Mueller-Hinton broth, CLSI conditions, Dog): 0.08 µg/mL (≈ 0.0446 µM) | MIC ([5]; ATCC29213, read-out: MIC, CAMHB, mean, cation-adjusted Mueller-Hinton broth, CLSI conditions, Human): 0.084 µg/mL (≈ 0.0468 µM) | MIC ([5]; ATCC29213, read-out: MIC, CAMHB, mean, cation-adjusted Mueller-Hinton broth, CLSI conditions, Mouse): 0.105 µg/mL (≈ 0.0586 µM) | MIC ([5]; ATCC29213, read-out: MIC, CAMHB, mean, cation-adjusted Mueller-Hinton broth, CLSI conditions, Rat): 0.086 µg/mL (≈ 0.048 µM) | MIC ([5]; ATCC29213, read-out: MIC, Serum, mean, 95% dog serum + 5% CAMHB): 0.475 µg/mL | MIC ([5]; ATCC29213, read-out: MIC, Serum, mean, 95% human serum + 5% CAMHB): 0.775 µg/mL | MIC ([5]; ATCC29213, read-out: MIC, Serum, mean, 95% mouse serum + 5% CAMHB): 0.538 µg/mL | MIC ([5]; ATCC29213, read-out: MIC, Serum, mean, 95% rat serum + 5% CAMHB): 0.313 µg/mL | MIC ([5]; ATCC29213, read-out: MIC, Ultrafiltrate, mean, 95% dog serum ultrafiltrate + 5% CAMHB): 0.061 µg/mL | MIC ([5]; ATCC29213, read-out: MIC, Ultrafiltrate, mean, 95% human serum ultrafiltrate + 5% CAMHB): 0.14 µg/mL | MIC ([5]; ATCC29213, read-out: MIC, Ultrafiltrate, mean, 95% mouse serum ultrafiltrate + 5% CAMHB): 0.079 µg/mL | MIC ([5]; ATCC29213, read-out: MIC, Ultrafiltrate, mean, 95% rat serum ultrafiltrate + 5% CAMHB): 0.055 µg/mL | Mean Fold MIC Increase ([5]; mean MIC in 95% dog serum / mean MIC in 95% dog serum ultrafiltrate): 7.8 fold | Mean Fold MIC Increase ([5]; mean MIC in 95% human serum / mean MIC in 95% human serum ultrafiltrate): 5.5 fold | Mean Fold MIC Increase ([5]; mean MIC in 95% mouse serum / mean MIC in 95% mouse serum ultrafiltrate): 6.8 fold | Mean Fold MIC Increase ([5]; mean MIC in 95% rat serum / mean MIC in 95% rat serum ultrafiltrate): 5.7 fold | fraction unbound [6]: 0.129 to 0.181 | Bound to serum protein, overall conclusion across species [7]: approximately 85% | fraction unbound [8]: 0.181 | fraction unbound [9]: 0.129 | Protein Binding [10]: 79.6% | Protein Binding [11]: 87.5% | Protein Binding [12]: 85.7-89.9% | fraction unbound [13]: 0.147 | fraction unbound [14]: ~0.35 | Bactericidal activity, log reduction [15]: ≥ 3 log | fraction unbound at 0.5 μg/ml ([16]; 0.5 μg/ml oritavancin): 0.326 | fraction unbound at 1 μg/ml ([16]; 1 μg/ml oritavancin): 0.361 | fraction unbound at 2 μg/ml ([16]; 2 μg/ml oritavancin): 0.383 | fraction unbound [17]: 0.176

— patent US9682061B2, “Methods of treating bacterial infections using oritavancin” (THE MEDICINES COMPANY, priority 2009, dated 2017)
